Data: patent EP4563573A1, “COMPOUND, AND PREPARATION METHOD THEREFOR AND USE THEREOF IN PREPARATION OF SEH INHIBITOR AND PPARS AGONIST” (Shenyang Pharmaceutical University, priority 2023, dated 2024)
Read-outs that look alike come from different tables or passages of the source.

Legend:
[1] = molecular target: T1, PPARγ (Homo sapiens, UniProt P37231); experiment: PPARγ agonist activity test (luciferase reporter gene); format: cell-based; settings: for PPARγ (compared with Rosiglitazone, %): relative to Rosiglitazone
T1 sequence (P37231 204-505): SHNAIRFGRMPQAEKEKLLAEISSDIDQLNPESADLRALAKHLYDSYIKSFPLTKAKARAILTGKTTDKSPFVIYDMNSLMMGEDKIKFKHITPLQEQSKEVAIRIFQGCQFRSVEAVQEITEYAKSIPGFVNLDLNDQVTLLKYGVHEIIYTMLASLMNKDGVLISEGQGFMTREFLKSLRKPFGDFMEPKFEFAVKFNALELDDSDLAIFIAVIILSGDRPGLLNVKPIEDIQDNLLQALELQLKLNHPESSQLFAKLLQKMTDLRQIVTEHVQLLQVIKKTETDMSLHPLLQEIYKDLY
Description: • 1. PPARγ agonist activity test Detection principle: when pM-hPPAR binds to the appropriate ligand, and is activated and binds to the GAL4DNA binding site in the plasmid pB4-RES-tk-luc, thereby initiating the expression of the downstream luciferase reporter gene. The amount of luciferase is detected to determine whether the compound to be tested is a PPAR agonist. • 2.

[2] = molecular target: T2, murine sEH (MsEH) (Mus musculus, UniProt P34914); settings: read-out: MsEH IC50, PHOME substrate
T2 sequence (P34914 1-554): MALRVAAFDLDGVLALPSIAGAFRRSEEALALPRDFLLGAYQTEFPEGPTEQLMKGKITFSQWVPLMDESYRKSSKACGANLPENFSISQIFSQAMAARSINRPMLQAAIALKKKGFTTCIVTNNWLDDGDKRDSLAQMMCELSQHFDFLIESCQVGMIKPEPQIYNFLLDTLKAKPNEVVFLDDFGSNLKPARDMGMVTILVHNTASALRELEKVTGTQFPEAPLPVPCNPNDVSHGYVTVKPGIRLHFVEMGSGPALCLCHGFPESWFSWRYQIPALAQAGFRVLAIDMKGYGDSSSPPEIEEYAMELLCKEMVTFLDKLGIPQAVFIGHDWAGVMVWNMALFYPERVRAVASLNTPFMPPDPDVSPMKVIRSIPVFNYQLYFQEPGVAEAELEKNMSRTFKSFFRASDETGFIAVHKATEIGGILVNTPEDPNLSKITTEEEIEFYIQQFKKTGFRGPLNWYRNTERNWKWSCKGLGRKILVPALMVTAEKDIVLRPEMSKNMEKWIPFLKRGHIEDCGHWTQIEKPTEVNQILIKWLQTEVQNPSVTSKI
Description: (§1) Detection principle: a specific substrate, (3-phenyl-oxy)-acetic acid cyano-(6-methoxy-naphthalen-2-yl) methyl ester, namely PHOME, is non-fluorescent but can be hydrolyzed under the action of sEH enzyme to generate a product 6-methoxy-2-naphthaldehyde. […] Based on the above principle, the inhibition rates of samples with different concentrations were calculated compared with the positive control group. The IC50 value of the compound was calculated based on the inhibition rate and concentration using SPSS 20 software.
(§2) PHOME solution: 0.79 mg PHOME was dissolved in 106 µL DMSO to obtain a 20 mM PHOME solution, which was diluted to 1/3 mM with Tris-HCl buffer when used.
(§3) sEH solution: sEH (5 mg/mL) stock solution was stored in a -80°C refrigerator and diluted to 4 µg/mL with 25 mM Tris-HCl buffer when used.
(§4) A sample powder to be tested was dissolved in DMSO to a 20 mM solution, stored in a - 20°C refrigerator for later use, and diluted with Tris-HCl buffer to the corresponding concentration when used.
(§5) Experimental design: solvent group, 100% activity group (A), inhibitor group (B), positive control group (C), as shown in Table 1.
(§6) Three replicate wells were set for each sample, and the average of the three replicate wells was the fluorescence value (F) of the compound to be tested. […] The IC50 value of the compound was calculated based on the inhibition rate and concentration using SPSS 20 software.
(§7) The activity of the compounds was evaluated using a biochemical method with [cyano-(6-methoxynaphthalen-2-yl)methyl] 2-(3-phenyloxiran-2-yl)acetate (PHOME) as a substrate using recombinant human sEH (HsEH) and murine sEH (MsEH).

[3] = molecular target: T3, recombinant human sEH (HsEH) (Homo sapiens, UniProt P34913)
T3 sequence (P34913 1-555): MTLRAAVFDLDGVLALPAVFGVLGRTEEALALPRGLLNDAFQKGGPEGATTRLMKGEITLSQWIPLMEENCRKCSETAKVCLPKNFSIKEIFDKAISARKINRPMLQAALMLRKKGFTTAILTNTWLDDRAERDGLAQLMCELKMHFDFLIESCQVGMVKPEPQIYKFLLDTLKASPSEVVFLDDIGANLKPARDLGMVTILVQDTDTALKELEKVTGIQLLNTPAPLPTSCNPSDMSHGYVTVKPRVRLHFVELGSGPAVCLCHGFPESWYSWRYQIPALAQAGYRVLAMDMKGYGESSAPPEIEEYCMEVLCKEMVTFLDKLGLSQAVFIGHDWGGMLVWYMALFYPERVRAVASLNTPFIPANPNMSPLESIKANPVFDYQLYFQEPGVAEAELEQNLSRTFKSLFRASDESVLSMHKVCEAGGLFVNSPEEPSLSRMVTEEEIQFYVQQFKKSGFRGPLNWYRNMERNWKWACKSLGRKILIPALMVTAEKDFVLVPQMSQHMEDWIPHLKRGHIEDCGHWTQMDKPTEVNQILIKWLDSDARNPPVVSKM
Description: as §1, §2, §3, §4, §5, §6, §7

[4] = Pharmacokinetics after intravenous and oral administration; settings: rats, i.v. 10 mg/kg
Description: Blood levels were measured within 8 hours after oral administration. […] Table 7 PK of SP-B07 after intravenous and oral administration in rats (n=3)

[5] = molecular target: T2, murine sEH (MsEH); experiment: biochemical
Description: as §1, §2, §3, §4, §5, §6, §7

[6] = system: LPS-induced sepsis model; experiment: LPS-induced sepsis model; format: in vivo, Male C57BL/6 mice; settings: LPS 25 mg/kg i.p., administration 4 h after modeling, twice at 8 h interval, n=7
Description: The drug was administered twice, with an interval of 8 h between administrations.

[7] = read-out: HsEH IC50, recombinant human sEH, PHOME substrate

SMILES | PPARγ (compared with Rosiglitazone, %) [1] [%] | IC50 [2] [nM] | IC50 [3, 7] [nM] | IC50 [5] [nM] | IC50 [3] [nM] | also measured
CCC(C)C(=O)Nc1ccc(OC2CCCC(NC(=O)NC34CC5CC(C)(CC(C)(C5)C3)C4)C2)cc1 (stereo not drawn) [SP-C01n] | 0.7 | 1.3 | 0.7 | – | – | –
CC(=O)Oc1ccc(O[C@H]2CC[C@H](NC(=O)Nc3ccc(OC(F)(F)F)c(F)c3)CC2)cc1 [SP-C01, phenyl 4-(((1r,4r)-4-(3-(3-fluoro-4-(trifluoromethoxy)phenyl)ureido)cyclohexyl)oxy)acetate] | – | – | – | – | – | time at which maximum concentration was reached after intravenous injection [4]: 2 min
CCC(=O)Nc1ccc(OC2CCCC(NC(=O)NC34CC5CC(C)(CC(C)(C5)C3)C4)C2)cc1 (stereo not drawn) [SP-C01m] | 0.9 | 6.7 | 0.9 | – | – | –
COC(=O)CN1C(=O)S/C(=C\c2ccc(O[C@H]3CC[C@H](NC(=O)Nc4ccc(OC(F)(F)F)cc4)CC3)cc2)C1=O [SP-D01, methyl 2-(2,4-dioxo-5-((Z)-4-(((1r,4r)-4-(3-(4-(trifluoromethoxy)phenyl)ureido)cyclohexyl)oxy)benzylidene)thiazolidin-3-yl)acetate] | 1.1 | 2.4 | 1.1 | – | – | –
CCOC(=O)CC(=O)Nc1ccc(O[C@H]2CC[C@H](NC(=O)Nc3ccc(OC(F)(F)F)c(F)c3)CC2)cc1 [SP-C01s] | 0.3 | – | – | 0.6 | 0.3 | –
CC12CC3CC(C)(C1)CC(NC(=O)N[C@H]1CC[C@H](Oc4ccc(CC5SC(=O)NC5=O)cc4)CC1)(C3)C2 (stereo partly drawn) [SP-A01] | 34.5 | – | – | 0.54 | 0.55 | EC50 [1]: 6770 nM
CC12CC3CC(C)(C1)CC(NC(=O)N1CCC(Oc4ccc(/C=C5\NC(=O)NC5=O)cc4)CC1)(C3)C2 [SP-B03, N-[(1r,3R,5S,7r)-3,5-dimethyladamantan-1-yl]-4-{4-[(Z)-(2,5-dioxyimidazolin-4-ylidene)methyl]phenoxy}piperidin-1-carboxamide] | 10.2 | – | – | 135 | 121 | –
O=C1NC(=O)C(Cc2ccc(OC3CCN(C(=O)Nc4ccc(OC(F)(F)F)cc4)CC3)cc2)S1 (stereo not drawn) [SP-A05] | 14.3 | 0.43 | 0.53 | – | – | –
O=C1NC(=O)/C(=C/c2ccc(OC3CCN(C(=O)Nc4ccc(OC(F)(F)F)cc4)CC3)cc2)N1 [SP-B04] | 9.6 | – | – | 108 | 156 | –
O=C1NC(=O)C(Cc2ccc(OC3CCN(C(=O)Nc4ccc(OC(F)(F)F)c(F)c4)CC3)cc2)S1 (stereo not drawn) [SP-A06] | 28.4 | 0.73 | 1.3 | – | – | –
O=C(Nc1ccc(OC(F)(F)F)c(F)c1)N[C@H]1CC[C@H](Oc2ccc(/C=C3\SC(=O)NC3=O)cc2)CC1 [SP-B06] | 19.3 | – | – | 1.1 | 0.69 | –
COC(=O)CN1C(=O)S/C(=C\c2ccc(O[C@H]3CC[C@H](NC(=O)NC45CC6C[C@@](C)(C4)C[C@](C)(C6)C5)CC3)cc2)C1=O [SP-D04, methyl 2-(5-((Z)-4-(((1R,4r)-4-(3-((1R,3R,5S,7R)-3,5-dimethyladamantan-1-yl)ureido)cyclohexyl)oxy)benzylidene)-2,4-dioxythiazolin-3-yl)acetate] | 1.2 | 10.1 | 1.2 | – | – | –
CC12CC3CC(C)(C1)CC(NC(=O)N1CCC(Oc4ccc(/C=C5\SC(=O)NC5=O)cc4)CC1)(C3)C2 [SP-B02] | 14.6 | – | – | 23.4 | 19.9 | –
C[C@@H]1C[C@H]2[C@@H]3CCC4=CC(=O)C=C[C@]4(C)[C@@]3(F)[C@@H](O)C[C@]2(C)[C@@]1(O)C(=O)CO [dexamethasone, reference compound] | – | – | – | – | – | increase of the survival rate [6]: 57.1%
O=C(Nc1ccc(OC(F)(F)F)c(F)c1)N[C@H]1CC[C@H](Oc2ccc(CC3SC(=O)NC3=O)cc2)CC1 (stereo partly drawn) [SP-A07] | 21.1 | – | – | 0.67 | 0.07 | EC50 [1]: 7750 nM
CC12CC3CC(C)(C1)CC(NC(=O)N1CCC(Oc4ccc(CC5SC(=O)NC5=O)cc4)CC1)(C3)C2 (stereo not drawn) [SP-A02] | 25.2 | – | – | 8.3 | 83.5 | –
CC(=O)Nc1ccc(O[C@H]2CC[C@H](NC(=O)Nc3ccc(OC(F)(F)F)c(F)c3)CC2)cc1 [SP-C01k, N-(4-(((1r,4r)-4-(3-(3-fluoro-4-(trifluoromethoxy)phenyl)ureido)cyclohexyl)oxy)phenyl)acetamide] | 0.3 | – | – | – | – | –
NC(=O)c1ccc(O[C@H]2CC[C@H](NC(=O)Nc3ccc(OC(F)(F)F)cc3)CC2)cc1 [SP-C01i] | 12.97 | – | – | 0.7 | 0.3 | –
O=C1NC(=O)/C(=C/c2ccc(OC3CCN(C(=O)Nc4ccc(OC(F)(F)F)cc4)CC3)cc2)S1 [SP-B05, (Z)-4-{4-[(2,4-dioxothiazolidin-5-ylidene)methyl]phenoxy}-N-[4-(trifluoromethoxy)phenyl]piperidin-1-carboxamide] | 17.3 | – | – | – | – | –
